Experimental data published in paper PMC5443346 (Bioorganic & medicinal chemistry, 2017).

Tested on: P. Falciparum 3D7
Test: SYBR Green I growth inhibition assay, 3D7 strain
Type: cell-based
Conditions: Plasmodium falciparum, 3D7, 72 h, read-out: P. Falciparum 3D7 IC50

Work on `CCN(CC)CCCC(C)Nc1ccnc2cc(Cl)ccc12` (stereo not shown) [Chloroquine, chloroquine] yielded an IC50 of 0.052 ± 0.012 µM.
